# Test results: publication PMC5544254 (Molecular bioSystems, 2017)
# Tested on: SMNDC1_12PC RNA (5′-UTR SMNDC1 mRNA G quadruplex)
# Test: Steady-state fluorescence spectroscopy titration, PC reporter quenching
# Format: binding
# Details: BSA titrated into SMNDC1_12PC RNA, control experiment, Supplemental Figure 1D
substance,measurement,value
bovine serum albumin [BSA],change of steady state fluorescence of PC reporter (non-specific control),did not change
